According to ChEMBL document CHEMBL5226321, “Ivermectin: A Promising Therapeutic for Fighting Malaria. Current Status and Perspective” (J Med Chem, 2021):
Several values for one entry are separate records, joined by “and”; a condition that tells them apart may be missing. Identical values can stand only once.

Key:
Type in all cases: functional, organism-based
[1] = tested on: Anopheles sp.; assay: Insecticidal in Anopheles sp. assessed as egg hatching rate fed with compound treated human blood administered as a single dose at 10 microg/ml fed at 4 hrs post treatment; details: dose 10.0 µg/ml
[2] = tested on: Plasmodium vivax; assay: Antimalarial activity against Plasmodium vivax assessed as reduction in […] in Anopheles sp. mosquito midgut fed with blood isolated from compound treated parasite-infected human at 40 ng/ml observed after 7 days relative to control; details: time 7.0 day
[3] = tested on: Anopheles minimus; assay: In vitro Insecticidal in Anopheles minimus assessed as lethality membrane-fed with compound treated human blood at 400 microg/kg per day in presence of combination of 120 mg dihydroartemisinin, 960 mg piperaquine and 30 mg primaquine observed after 7 days; details: dose 400.0 µg/kg, time 7.0 day
[4] = tested on: Anopheles gambiae; assay: Insecticidal in Anopheles gambiae assessed as mortality fed with compound treated bovine blood at 6 ng/mL observed for 10 days relative to control; details: time 10.0 day
[5] = tested on: Anopheles arabiensis; assay: Insecticidal in Anopheles arabiensis assessed as percentage of reduction in mortality in 3 day survivorship fed with compound treated bovine blood at 73 mg observed for 24 weeks relative to control
[6] = tested on: Anopheles sp.; assay: Insecticidal in Anopheles sp. infected with Plasmodium falciparum gametocytes assessed as reduction in survival fed with compound treated bovine blood at 200 microg/kg feeding at 15 days after injection relative to control; details: dose 200.0 µg/kg
[7] = tested on: Anopheles sp.; assay: Insecticidal in Anopheles sp. infected with Plasmodium vivax assessed as mortality rate fed with blood isolated from compound treated human at 200 microg/kg observed for 5 days; details: dose 200.0 µg/kg, time 5.0 day
[8] = tested on: Anopheles sp.; assay: Insecticidal in Anopheles sp. assessed as mean plasma concentration fed with compound treated pig blood administered as a single dose at 600 microg/kg at 22 day post treatment; details: dose 600.0 µg/kg
[9] = tested on: Plasmodium berghei; assay: In vivo antimalarial activity against liver stage Plasmodium berghei infected in mouse assessed as inhibition of liver infection at 10 mg/kg measured 44 to 46 hrs post-infection by bioluminescence assay relative to control; details: time 44-46 hrs
[10] = tested on: Anopheles sp.; assay: Insecticidal in Anopheles sp. assessed as mortality relative to control
[11] = tested on: Anopheles sp.; assay: Insecticidal in Anopheles sp. infected with Plasmodium falciparum gametocytes assessed as survival fed with compound treated bovine blood at 200 microg/kg feeding at 2 weeks after injection; details: dose 200.0 µg/kg
[12] = tested on: Anopheles stephensi; assay: Insecticidal in Anopheles stephensi assessed as mortality rate membrane-fed with blood of compound treated mouse at 600 microg/kg observed within 6 days relative to control; details: dose 600.0 µg/kg, time 6.0 day
[13] = tested on: Culex quinquefasciatus; assay: Insecticidal in Culex quinquefasciatus assessed as mortality rate fed with blood of compound treated mouse at […], sc before 12 hrs and observed after 36 hrs relative to control
[14] = tested on: Anopheles sp.; assay: Insecticidal in Anopheles sp. assessed as mortality rate fed with blood of compound treated human at 200 microg/kg administered once caught on day 2 after mass drug administration observed within 5 days relative to control; details: dose 200.0 µg/kg, time 5.0 day
[15] = tested on: Anopheles gambiae; assay: Insecticidal in Anopheles gambiae assessed as lethal concentration membrane-fed with compound treated human blood at 200 microg/kg observed after 48 to 72 hrs; details: dose 200.0 µg/kg, time 48-72 hrs
[16] = tested on: Plasmodium vivax; assay: Antimalarial activity against Plasmodium vivax assessed as sporogony lethality in Anopheles darlingi mosquito fed with blood isolated from compound treated parasite-infected human observed after 7 days by measuring reduction in parasite prevalence level at Lc50 relative to control; set-up: scale not given: the % may be the effect or the level left; details: time 7.0 day
[17] = tested on: Anopheles sp.; assay: Insecticidal in Anopheles sp. infected with Plasmodium falciparum gametocytes assessed as mortality fed with compound treated bovine blood at 200 microg/kg observed within 2.87 days feeding at 2 days post treatment relative to control; details: dose 200.0 µg/kg, time 2.87 day
[18] = tested on: Anopheles sp.; assay: Insecticidal in Anopheles sp. infected with Plasmodium vivax assessed as lethality fed with blood isolated from compound treated human observed for 5 days; details: time 5.0 day
[19] = tested on: Anopheles sp.; assay: In vitro Insecticidal in Anopheles sp. assessed as lethality membrane-fed with compound treated human blood at 400 microg/kg per day in presence of combination of 120 mg dihydroartemisinin, 960 mg piperaquine and 30 mg primaquine observed after 7 days; details: dose 400.0 µg/kg, time 7.0 day
[20] = tested on: Anopheles sp.; assay: Insecticidal in Anopheles sp. infected with Plasmodium falciparum gametocytes assessed as reduction in fecundity fed with compound treated bovine blood at 200 microg/kg feeding at 21 days after injection relative to control; set-up: scale not given: the % may be the effect or the level left; details: dose 200.0 µg/kg
[21] = tested on: Anopheles sp.; assay: Insecticidal in Anopheles sp. assessed as mortality fed with treated bovine blood containing 1% of compound observed within 4 days after a blood meal on 7 days post treatment relative to control; details: time 4.0 day
[22] = tested on: Anopheles sp.; assay: Insecticidal in Anopheles sp. assessed as mortality fed with compound treated pig blood at 600 microg/kg observed within 2 to 4 days feeding upto 8 days after drug administration relative to control; details: dose 600.0 µg/kg, time 2-4 day
[23] = tested on: Anopheles sp.; assay: Insecticidal in Anopheles sp. assessed as reduction in survival rate fed with compound treated human blood at 400 microg/kg observed in 48 hrs relative to control; details: dose 400.0 µg/kg
[24] = tested on: Anopheles arabiensis; assay: Insecticidal in Anopheles arabiensis assessed as mortality fed with compound treated bovine blood at 200 microg/kg observed within 2 to 4 days after blood feeding relative to control; details: dose 200.0 µg/kg, time 2-4 day
[25] = tested on: Anopheles sp.; assay: Insecticidal in Anopheles sp. assessed as mortality rate fed with blood of compound treated human at 200 microg/kg administered once caught on day 3 after mass drug administration observed within 5 days relative to control; details: dose 200.0 µg/kg, time 5.0 day
[26] = tested on: Anopheles sp.; assay: Insecticidal in Anopheles sp. infected with Plasmodium falciparum gametocytes assessed as reduction in survival fed with compound treated bovine blood at 200 microg/kg feeding at 28 days after injection relative to control; details: dose 200.0 µg/kg
[27] = tested on: Anopheles gambiae; assay: Insecticidal in Anopheles gambiae assessed as mortality fed with compound treated bovine blood at 600 microg/kg observed for 10 days; details: dose 600.0 µg/kg, time 10.0 day
[28] = tested on: Anopheles arabiensis; assay: Insecticidal in Anopheles arabiensis assessed as reduction in number of eggs fed with compound treated bovine blood at 200 microg/kg relative to control; set-up: scale not given: the % may be the effect or the level left; details: dose 200.0 µg/kg
[29] = tested on: Anopheles gambiae; assay: Insecticidal in Anopheles gambiae assessed as probability of survival per day fed with blood of compound treated human at 150 microg/kg observed for 6 days relative to control; details: dose 150.0 µg/kg, time 6.0 day
[30] = tested on: Anopheles darlingi; assay: Insecticidal in Anopheles darlingi infected with Plasmodium vivax assessed as mortality rate midgut fed with blood isolated from compound treated parasite-infected human observed after 7 days relative to control; details: time 7.0 day
[31] = tested on: Anopheles sp.; assay: Insecticidal in Anopheles sp. assessed as percentage survival fed with blood of compound treated human at 250 microg/kg administered once and observed for 3 days relative to control; details: dose 250.0 µg/kg, time 3.0 day
[32] = tested on: Anopheles sp.; assay: Insecticidal in Anopheles sp. assessed as lethal concentration fed with compound treated human blood administered as a single dose at 10 microg/ml fed at 4 hrs post treatment; details: dose 10.0 µg/ml
[33] = tested on: Aedes aegypti; assay: Insecticidal in Aedes aegypti assessed as mortality rate fed with blood of compound treated mouse at 83 mg/kg, sc before 12 hrs and observed after 36 hrs relative to control
[34] = tested on: Anopheles gambiae; assay: Insecticidal in Anopheles gambiae assessed as mortality fed with compound treated pig plasma at 20 ng/mL observed for 10 days relative to control; details: time 10.0 day

IVERMECTIN
Activity [1]: 74.8
inhibition [2]: 86%
LC50 [3]: 0.0147 µg/mL
mortality [4]: 50%
mortality [5]: 50%
Survival [6]: 77%
mortality [7]: 50%
Cp [8]: 1.4 ng/mL
inhibition [9]: 80%
mortality [10]: 90%
Survival [11]: 2 days
mortality [12]: 85%
mortality [13]: 50%
mortality [14]: 80%
LC50 [15]: 0.01 µg/mL and 0.007 µg/mL
Activity [16]: 22.6% and 17.1%
mortality [17]: 100%
LC5 [18]: 18.3 ng/mL
LC50 [19]: 0.0576 µg/mL
Activity [20]: 33%
mortality [21]: 80%
mortality [22]: 100%
Survival [23]: 31%
mortality [24]: 80%
mortality [25]: 68%
Survival [26]: 23%
mortality [27]: 90%
Activity [28]: 82%
Survival [29]: > 10%
mortality [30]: 97.1%
Survival [31]: 20%
LC5 [32]: 18.3 ng/mL
mortality [33]: 60%
mortality [34]: 50%
